From paper PMC4791274, “Cerdulatinib, a novel dual SYK/JAK kinase inhibitor, has broad anti-tumor activity in both ABC and GCB types of diffuse large B cell lymphoma” (Oncotarget, 2015)

Tests used:
HBL1 ABC DLBCL cell line = assay: MTT assay (cellular metabolic activity), 72 h; format: cell-based; conditions: HBL1, 72 h
Description: (§1) DLBCL cell lines were treated with various concentrations of cerdulatinib for up to 72 h. The metabolic activities of cells were determined with MTT assay according to manufacturer's instruction (Roche Applied Science, Indianapolis, IN) at 72 h time point. IC50 was calculated using the Sigma Plot generated with GraphPad Prism 6 software (GraphPad, La Jolla, CA). Cell growth was measured at every 24 h counting live cells with flow cytometry as previously described. Cells were collected every 24 h and cell viability was determined by the PE Annexin V Apoptosis Detection Kit I (BD Biosciences).

[1] = system: LY1 (OCI-LY1) GCB DLBCL cell line; assay: MTT assay (cellular metabolic activity), 72 h; format: cell-based; conditions: Homo sapiens, OCI-Ly1, 72 h
Description: as §1

[2] = system: LY10 (OCI-LY10) ABC DLBCL cell line; assay: MTT assay (cellular metabolic activity), 72 h; format: cell-based; conditions: LY10, 72 h
Description: as §1

[3] = system: LY18 (OCI-LY18) GCB DLBCL cell line; assay: MTT assay (cellular metabolic activity), 72 h; format: cell-based; conditions: Homo sapiens, OCI-Ly18, 72 h
Description: as §1

[4] = system: LY3 (OCI-LY3) ABC DLBCL cell line; assay: MTT assay (cellular metabolic activity), 72 h; format: cell-based; conditions: Homo sapiens, OCI-Ly3, 72 h
Description: as §1

[5] = system: LY4 (OCI-LY4) GCB DLBCL cell line; assay: MTT assay (cellular metabolic activity), 72 h; format: cell-based; conditions: LY4, 72 h
Description: as §1

[6] = system: LY8 (OCI-LY8) GCB DLBCL cell line; assay: MTT assay (cellular metabolic activity), 72 h; format: cell-based; conditions: OCI-Ly8, 72 h
Description: as §1

[7] = system: SUDHL2 ABC DLBCL cell line; assay: MTT assay (cellular metabolic activity), 72 h; format: cell-based; conditions: Homo sapiens, SU-DHL-2; SUDHL2, 72 h
Description: as §1

[8] = system: SUDHL6 GCB DLBCL cell line; assay: MTT assay (cellular metabolic activity), 72 h; format: cell-based; conditions: Homo sapiens, SU-DHL-6; SUDHL6, 72 h
Description: as §1

[9] = system: U2932 ABC DLBCL cell line; assay: MTT assay (cellular metabolic activity), 72 h; format: cell-based; conditions: Homo sapiens, U2932, 72 h
Description: as §1

VAL GCB DLBCL cell line = assay: MTT assay (cellular metabolic activity), 72 h; format: cell-based
Description: as §1

ABC DLBCL cell lines = assay: MTT assay, ABC cell lines; format: cell-based; conditions: ABC cell lines with relatively higher total and phosphorylated STAT3, 72 h
Description: as §1

LY18 cells = assay: PARP and caspase 3 cleavage, Western blotting; format: cell-based; conditions: LY18, 48 h
Description: (§2) Immunoblotting were performed as previously described. Antibodies including total STAT3, SYK, PLCγ2, AKT, ERK1/2, PARP, caspase 3, and phosphorylated STAT3 (S727), STAT3 (Y705), SYK (Y525/526), PLCγ2 (Y759), PLCγ2 (Y1217), AKT (S473), ERK1/2 (Y204) and RB (S807/811) were purchased from Cell Signaling (Danvers, MA). Cyclin E antibody was purchased from Santa Cruz Biotechnology (Dallas, TX), and β-actin antibody was purchased from Sigma-Aldrich (St Louis, MO). Antibodies used in phosphoflow assay, including phosphorylated STAT3 (S727), SYK (Y525/526), PLCγ2 (Y759), AKT (S473), and ERK1/2 (Y204) were purchased from BD Biosciences (San Jose, CA).

[10] = system: phosphorylation of STAT3 at Y705; assay: immunoblotting of p-STAT3 in IL-6/IL-10 stimulated DLBCL cell lines; format: cell-based; conditions: 3 μM, IL-6 and IL-10 stimulated ABC and GCB cell lines
Description: as §2

p-SYK = assay: immunoblotting of p-SYK in BCR-stimulated DLBCL cell lines; format: cell-based; conditions: 3 μM, anti IgM/IgG stimulated, all five cell lines
Description: as §2

p-STAT3, p-AKT and p-ERK = assay: phospho-flow assay in anti-BCR stimulated primary DLBCL cells; format: cell-based, human; conditions: 0.5 μM or 1 μM, 6 h, then IgM/IgG 15 min, six primary DLBCL samples
Description: GCB cell lines OCI-LY1, OCI-LY4, OCI-LY8, OCI-LY18, SUDHL6 and VAL were cultured in Iscove's Modified Dulbecco's Medium (IMDM) supplemented with 20% Fetal Bovine Serum (FBS) and 100 μg/mL penicillin/streptomycin. ABC cell lines SUDHL2 and HBL1 were cultured in RPMI1640 supplemented with 20% FBS and 100 μg/mL penicillin/streptomycin. OCI-LY3 cells were grown in RPMI1640 supplemented with 20% FBS, 100 μg/ml penicillin/streptomycin and HEPES. ABC cell lines OCI-LY10 was cultured in Iscove's Modified Dulbecco's Medium (IMDM) supplemented with 20% human serum and 100 μg/mL penicillin/streptomycin. ABC cell line U2932 was cultured in high glucose RPMI1640 supplemented with 20% FBS, 100 μg/ml penicillin/streptomycin. All cells were maintained in a humidified 37°C/5% CO2 incubator. Frozen primary DLBCL cells were obtained from the tumor bank of the Department of Pathology at Weill Cornell Medical College after Institutional Review Board review and approval. All primary cells were thawed as previously described and cultured in above conditions at 37°C for 6 h in the presence or absence of cerdulatinib followed by BCR stimulations with 5 μg/mL of IgM and IgG. The clinical characteristics of these patients are listed in the Supplemental Table 1. Cerdulatinib was kindly provided by Portola Pharmaceuticals Inc. (South San Francisco, CA) and stored as 10 mM stock at −20°C. […]

[11] = system: BCR-stimulated DLBCL cells; assay: annexin V / 7-AAD viability under BCR stimulation; format: cell-based; conditions: 3 μM, 48 h, anti-IgM and anti-IgG stimulation, all cell lines tested
Description: as §1

MST1 = conditions: biochemical assay; cited from earlier work
TBK1 = conditions: biochemical assay; cited from earlier work
TSSK = conditions: biochemical assay; cited from earlier work
GCK = conditions: biochemical assay; cited from earlier work
RET = conditions: biochemical assay; cited from earlier work

IC50 [1]: 270 nM | IC50 [2]: 290 nM | IC50 [3]: 160 nM | IC50 [4]: 1660 nM | IC50 [5]: 2100 nM | IC50 [6]: 50 nM | IC50 [7]: 980 nM | IC50 [8]: 100 nM
SMILES: CCS(=O)(=O)N1CCN(c2ccc(Nc3ncc(C(N)=O)c(NC4CC4)n3)cc2)CC1 [cerdulatinib]
IC50 (HBL1 ABC DLBCL cell line): 540 nM | IC50 [9]: 1800 nM | IC50 (VAL GCB DLBCL cell line): 130 nM | IC50 (ABC DLBCL cell lines): 290 to 1800 nM | PARP and caspase 3 cleavage (LY18 cells): little changes | phosphorylation of STAT3 at Y705 [10]: completely blocked | p-SYK level (p-SYK): significant reduction | p-STAT3, p-AKT and p-ERK levels (p-STAT3, p-AKT and p-ERK): marked and simultaneous down-regulation | viability of stimulated DLBCL cells [11]: reduced | IC50 (MST1): 4 nM | IC50 (TBK1): 10 nM | IC50 (TSSK): 14 nM | IC50 (GCK): 18 nM | IC50 (RET): 105 nM
